In one series the test system is HCMV strain AD169. Briefly: HCMV primary assay (CPE), strain AD169, HFF cells. It counts as cell-based, Human Cytomegalovirus. To be noted: Human betaherpesvirus 5, HCMV primary assay, virus strain AD169, HFF cells.
Series [1] is described as follows: Cytotoxicity concurrent with HHV-6B primary assay. To be noted: human, MOLT-3 cells. It counts as cell-based.
Series [2] in a line: Cytotoxicity concurrent with HCMV AD169 primary assay. It counts as cell-based, human. The following applies: human, CC50.
The nature of series [3]: Cytotoxicity concurrent with HPV11 primary assay. To be noted: human, C-33 A cells. It counts as cell-based. The text has this:
(§1) An HPV11 replicon assay was developed and expresses the essential E1 and E2 proteins from the native promoter. The E2 origin binding protein interacts with the virus origin of replication and recruits the E1 replicative helicase which unwinds the DNA and helps to recruit the cellular DNA replication machinery (including DNA polymerases, type I and type II topoisomerases, DNA ligase, single-stranded DNA binding proteins, proliferating cell nuclear antigen). The replication complex then drives the amplification of the replicon which can be assessed by the expression of a destabilized NanoLuc reporter gene carried on the replicon. In this assay, the replicon (pMP619) is transfected into C-33 A cells grown as monolayers in 384-well plates. At 48 h post transfection, the enzymatic activity of the destabilized NanoLuc reporter is assessed with NanoGlo reagent. […] . Beadle et al., 2016.

Series [4] has as its system Human papillomavirus 11 strain HE611260.1. The experiment in a line: Human papillomavirus 11 primary assay (replicon), C-33 A cells. To be noted: strain HE611260.1, C-33 A cells. It counts as cell-based.
Description: as §1
(In general: Replicon systems follow genome replication, usually without infectious particles.)

A further series addresses CDK9/cyclin T1 (Homo sapiens (Human), UniProt P50750). Briefly: Kinase activity assay, CDK9/cyclin T1. Format: biochemical. To be noted: Table 3.1.2; 10 μM ATP; 10-dose triplicate starting at 9.827 μM; unit not printed (table 3.1.1 prints M); read-out: CDK9/cyclin T1 kinase activity (IC50).
The nature of series [5]: Metabolic stability in mice liver microsomes. The following applies: mice liver microsomes, 1 μM compound, 1 mM NADPH, 60 min. As for the experimental part: Potassium phosphate buffer (Kphos) was prepared by adding 0.647 g potassium phosphate monobasic (KH2PO4) and 3.527 g potassium phosphate dibasic (K2HPO4) to 400 mL of Milli-Q water. pH of the buffer was adjusted to 7.4 and volume was made up to 500 mL.
Stock solutions of the test compounds were prepared in DMSO at a concentration of 1 mM.
To this microsomal mix 1.42 μL (1 mM) of test compound and positive control were spiked, from this mix 70 μL was transferred to 96 well plate and pre-incubated at 37° C. for 5 min. […] The plates were centrifuged at 4000 RPM for 15 min and 100 μL aliquots were submitted for analysis by LC-MS/MS.
Samples were monitored for parent compound disappearance in MRM mode using LC-MS/MS. The LC-MS/MS conditions and MRM chromatogram will be provided as per client request.
The peak area ratios of analyte versus internal standard were used to calculate the % remaining at the end of 60 minutes in presence NADPH.
In general terms: Liver microsomes are a subcellular fraction often used to study metabolism.

Series [6] in a line: Cytotoxicity concurrent with HHV-8 primary assay. It counts as cell-based. To be noted: human, BCBL-1 cells.
In series [7] the test system is Human herpes virus 8 strain BCBL-1. Briefly: Human herpes virus 8 primary assay, BCBL-1 cells. The following applies: Human gammaherpesvirus 8, BCBL1, strain BCBL-1, BCBL-1 cells. It counts as cell-based, Human Herpesvirus 8.
In series [8] the test system is Human herpes virus 6B strain Z29. Briefly: Human herpes virus 6B primary assay, strain Z29, MOLT-3 cells. It counts as cell-based, Human Herpesvirus 6B. To be noted: Human betaherpesvirus 6B.

CDK9/cyclin T1, sequence (P50750 whole entry): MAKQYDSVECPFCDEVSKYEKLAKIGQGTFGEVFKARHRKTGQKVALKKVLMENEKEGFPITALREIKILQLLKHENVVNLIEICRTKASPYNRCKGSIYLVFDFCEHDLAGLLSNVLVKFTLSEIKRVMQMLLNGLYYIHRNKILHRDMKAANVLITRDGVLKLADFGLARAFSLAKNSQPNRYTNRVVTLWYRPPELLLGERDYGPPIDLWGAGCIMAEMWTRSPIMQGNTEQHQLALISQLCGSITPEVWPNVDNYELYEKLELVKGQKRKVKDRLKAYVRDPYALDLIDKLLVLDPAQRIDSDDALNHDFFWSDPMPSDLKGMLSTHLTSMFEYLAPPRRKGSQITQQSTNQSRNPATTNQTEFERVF
CDK9/cyclin T1, sequence (O60563 whole entry partner): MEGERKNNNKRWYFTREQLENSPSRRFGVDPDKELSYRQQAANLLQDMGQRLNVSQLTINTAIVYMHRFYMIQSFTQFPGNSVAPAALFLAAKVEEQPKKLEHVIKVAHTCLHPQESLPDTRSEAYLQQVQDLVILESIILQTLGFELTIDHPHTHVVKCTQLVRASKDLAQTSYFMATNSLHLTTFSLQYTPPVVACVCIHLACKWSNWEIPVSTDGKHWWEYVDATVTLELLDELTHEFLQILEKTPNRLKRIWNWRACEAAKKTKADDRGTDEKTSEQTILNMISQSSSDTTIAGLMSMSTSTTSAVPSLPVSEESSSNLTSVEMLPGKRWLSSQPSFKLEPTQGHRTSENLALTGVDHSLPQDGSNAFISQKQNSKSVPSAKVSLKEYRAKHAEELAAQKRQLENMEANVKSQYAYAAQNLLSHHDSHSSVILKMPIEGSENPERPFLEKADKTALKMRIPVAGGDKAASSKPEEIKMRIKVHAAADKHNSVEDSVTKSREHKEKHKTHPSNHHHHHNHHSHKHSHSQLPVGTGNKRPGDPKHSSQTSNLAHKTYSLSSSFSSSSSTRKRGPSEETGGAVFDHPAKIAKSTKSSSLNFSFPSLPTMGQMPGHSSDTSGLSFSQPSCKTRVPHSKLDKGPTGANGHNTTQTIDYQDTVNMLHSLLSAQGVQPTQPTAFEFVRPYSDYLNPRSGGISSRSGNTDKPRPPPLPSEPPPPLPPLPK

A word on the EC50: it is the concentration needed to bring the measured effect to its halfway point. Broadly, the EC90 is the concentration at which the effect reaches the 90% level. By CC50 is commonly meant the concentration that lowers cell viability or growth by half. A higher CC50 goes with lower toxicity to the cells. As to `Fc1ccc2c(c1)nn1cnc(NC3CCOCC3)cc21` [VKT-320, 7-fluoro-N-(tetrahydro-2H-pyran-4-yl)pyrimido[1,6-b]indazol-3-amine], the EC50 worked out at 10 µM with HCMV strain AD169 (read-out: EC50), 7.99 µM in [4], 22.1 µM in series [7] and 8.96 µM in series [8]. For the same compound, the EC90 with HCMV strain AD169 (read-out: EC90) turned out to be 10 µM; in [4], 19.8 µM; in series [7] it was 44.2 µM; in series [8] it was 32.6 µM. This compound also displayed a CC50 at 7 d in series [1] of 50 µM. The CC50 in [2] is 38.5 µM; in series [3], 50 µM; in [6] it was 50 µM. Besides, at CDK9/cyclin T1, the IC50 came to 1.68 µM. The “% Remaining at 60 min” value in [5] is on record as 37%.

The values above are taken from patent publication US20240309004A1, “SELECTIVE CYCLIN-DEPENDENT KINASE INHIBITORS AND METHODS OF THERAPEUTIC USE THEREOF” (ViroKyne Therapeutics, LLC, priority 2021, published 2024).
